Experimental data as given in paper doi:10.1101/2024.08.19.608619, “Discovery of potent SARS-CoV-2 nsp3 macrodomain inhibitors uncovers lack of translation to cellular antiviral response” (bioRxiv, 2024).
pEC50: −log10 of the molar value. In brackets after ≈: the same amount, converted by molar mass.

Tested on: not listed separately
Assay: Permeability Papp (AB) MDR1/MDCKII
Settings: In vitro MDR1-MDCKII permeability, A to B, mean

Compound	papp_a_to_b_mean [×10⁻⁶ cm/s]
Cc1nn(C)cc1-c1cc2c(N[C@H](c3ccc4c(c3)S(=O)(=O)CCC4)C(C)C)ncnc2[nH]1 (single isomer, unassigned) [ASAP-0011448]	3.69
CNC(=O)c1cc2c(N[C@@H](c3ccc4c(c3)NC(=O)CO4)C(C)C)ncnc2[nH]1 [ASAP-0011219]	1.21

Same assay, conditions: In vitro MDR1-MDCKII permeability, A to B, no inhibitor

Compound	papp_a_to_b_mean [×10⁻⁶ cm/s]
CCNC(=O)c1cc2c(N[C@H](c3ccc4c(c3)OCCO4)C(C)C)ncnc2[nH]1 (single isomer, unassigned) [ASAP-0013827]	2.9
CNC(=O)c1c[nH]c2ncnc(N[C@@H](c3ccc4c(c3)S(=O)(=O)CCC4)C(C)C)c12 [ASAP-0011156]	0.857
CC(C)[C@H](Nc1ncnc2[nH]c(C(=O)N[C@@H]3CCN(C)C3)cc12)c1ccc2c(c1)S(=O)(=O)CCC2 [ASAP-0011196]	0.707
CC(C)[C@H](Nc1ncnc2[nH]c(-c3cnn(CC(N)=O)c3)cc12)c1ccc2c(n1)OCCO2 [ASAP-0012307]	1.27

Same assay, conditions: In vitro MDR1-MDCKII permeability, recovery A to B, mean

Compound	perc_recovery_a_to_b_mean [%]
Cc1nn(C)cc1-c1cc2c(N[C@H](c3ccc4c(c3)S(=O)(=O)CCC4)C(C)C)ncnc2[nH]1 (single isomer, unassigned) [ASAP-0011448]	77.9
CNC(=O)c1cc2c(N[C@@H](c3ccc4c(c3)NC(=O)CO4)C(C)C)ncnc2[nH]1 [ASAP-0011219]	105.0

Same assay, conditions: In vitro MDR1-MDCKII permeability, recovery A to B, no inhibitor

Compound	perc_recovery_a_to_b_mean [%]
CCNC(=O)c1cc2c(N[C@H](c3ccc4c(c3)OCCO4)C(C)C)ncnc2[nH]1 (single isomer, unassigned) [ASAP-0013827]	81.7
CNC(=O)c1c[nH]c2ncnc(N[C@@H](c3ccc4c(c3)S(=O)(=O)CCC4)C(C)C)c12 [ASAP-0011156]	78.7
CC(C)[C@H](Nc1ncnc2[nH]c(C(=O)N[C@@H]3CCN(C)C3)cc12)c1ccc2c(c1)S(=O)(=O)CCC2 [ASAP-0011196]	103.0
CC(C)[C@H](Nc1ncnc2[nH]c(-c3cnn(CC(N)=O)c3)cc12)c1ccc2c(n1)OCCO2 [ASAP-0012307]	100.0

Tested on: not listed separately
Assay: LogD
Settings: pH 7.4; In vitro LogD

Compound	logd
Cc1nn(C)cc1-c1cc2c(N[C@H](c3ccc4c(c3)S(=O)(=O)CCC4)C(C)C)ncnc2[nH]1 (single isomer, unassigned) [ASAP-0011448]	3.4
CCNC(=O)c1cc2c(N[C@H](c3ccc4c(c3)OCCO4)C(C)C)ncnc2[nH]1 (single isomer, unassigned) [ASAP-0013827]	3.6
CNC(=O)c1c[nH]c2ncnc(N[C@@H](c3ccc4c(c3)S(=O)(=O)CCC4)C(C)C)c12 [ASAP-0011156]	2.6
CC(C)[C@H](Nc1ncnc2[nH]c(C(=O)N[C@@H]3CCN(C)C3)cc12)c1ccc2c(c1)S(=O)(=O)CCC2 [ASAP-0011196]	1.4
CNC(=O)c1cc2c(N[C@@H](c3ccc4c(c3)NC(=O)CO4)C(C)C)ncnc2[nH]1 [ASAP-0011219]	2.9
CC(C)[C@H](Nc1ncnc2[nH]c(-c3cnn(CC(N)=O)c3)cc12)c1ccc2c(n1)OCCO2 [ASAP-0012307]	2.3

Tested on: not listed separately
Assay: Hepatic microsomal stability, MLM
Type: in vitro ADME
Settings: In vitro mouse liver microsomal stability

Compound	clint [µL/min/mg]	perc_remaining [%]	t_half [min]
Cc1nn(C)cc1-c1cc2c(N[C@H](c3ccc4c(c3)S(=O)(=O)CCC4)C(C)C)ncnc2[nH]1 (single isomer, unassigned) [ASAP-0011448]	390.0	1.0	4.3
CCNC(=O)c1cc2c(N[C@H](c3ccc4c(c3)OCCO4)C(C)C)ncnc2[nH]1 (single isomer, unassigned) [ASAP-0013827]	72.0	29.0	23.2
CNC(=O)c1c[nH]c2ncnc(N[C@@H](c3ccc4c(c3)S(=O)(=O)CCC4)C(C)C)c12 [ASAP-0011156]	113.0	15.0	14.7
CC(C)[C@H](Nc1ncnc2[nH]c(C(=O)N[C@@H]3CCN(C)C3)cc12)c1ccc2c(c1)S(=O)(=O)CCC2 [ASAP-0011196]	3.0	104.0	648.8
CNC(=O)c1cc2c(N[C@@H](c3ccc4c(c3)NC(=O)CO4)C(C)C)ncnc2[nH]1 [ASAP-0011219]	33.0	57.0	51.2
CC(C)[C@H](Nc1ncnc2[nH]c(-c3cnn(CC(N)=O)c3)cc12)c1ccc2c(n1)OCCO2 [ASAP-0012307]	5.0	99.0	359.1

Same assay, conditions: In vitro mouse liver microsomal stability, no cofactor

Compound	perc_remaining_no_cofactor [%]
Cc1nn(C)cc1-c1cc2c(N[C@H](c3ccc4c(c3)S(=O)(=O)CCC4)C(C)C)ncnc2[nH]1 (single isomer, unassigned) [ASAP-0011448]	103.0
CCNC(=O)c1cc2c(N[C@H](c3ccc4c(c3)OCCO4)C(C)C)ncnc2[nH]1 (single isomer, unassigned) [ASAP-0013827]	92.0
CNC(=O)c1c[nH]c2ncnc(N[C@@H](c3ccc4c(c3)S(=O)(=O)CCC4)C(C)C)c12 [ASAP-0011156]	108.0
CC(C)[C@H](Nc1ncnc2[nH]c(C(=O)N[C@@H]3CCN(C)C3)cc12)c1ccc2c(c1)S(=O)(=O)CCC2 [ASAP-0011196]	107.0
CNC(=O)c1cc2c(N[C@@H](c3ccc4c(c3)NC(=O)CO4)C(C)C)ncnc2[nH]1 [ASAP-0011219]	99.0
CC(C)[C@H](Nc1ncnc2[nH]c(-c3cnn(CC(N)=O)c3)cc12)c1ccc2c(n1)OCCO2 [ASAP-0012307]	110.0

Tested on: SARS-CoV-2, isolate USA-WA1/2020
Assay: microbe, parasite or virus in culture
Type: cell-based
Settings: HeLa-ACE2 SARS-CoV-2 antiviral effect without P-gp inhibitor; maximum measured response of dose series

Compound	perc_max_measured [%]
Cc1nn(C)cc1-c1cc2c(N[C@H](c3ccc4c(c3)S(=O)(=O)CCC4)C(C)C)ncnc2[nH]1 (single isomer, unassigned) [ASAP-0011448]	131.643
CCNC(=O)c1cc2c(N[C@H](c3ccc4c(c3)OCCO4)C(C)C)ncnc2[nH]1 (single isomer, unassigned) [ASAP-0013827]	113.12

Same assay, conditions: HeLa-ACE2 SARS-CoV-2 antiviral effect without P-gp inhibitor; minimum measured response of dose series

Compound	perc_min_measured [%]
Cc1nn(C)cc1-c1cc2c(N[C@H](c3ccc4c(c3)S(=O)(=O)CCC4)C(C)C)ncnc2[nH]1 (single isomer, unassigned) [ASAP-0011448]	93.649
CCNC(=O)c1cc2c(N[C@H](c3ccc4c(c3)OCCO4)C(C)C)ncnc2[nH]1 (single isomer, unassigned) [ASAP-0013827]	80.543

Same assay, conditions: HeLa-ACE2 SARS-CoV-2 antiviral effect without P-gp inhibitor; read-out: ec50

Compound	pEC50
Cc1nn(C)cc1-c1cc2c(N[C@H](c3ccc4c(c3)S(=O)(=O)CCC4)C(C)C)ncnc2[nH]1 (single isomer, unassigned) [ASAP-0011448]	< 4.70
CCNC(=O)c1cc2c(N[C@H](c3ccc4c(c3)OCCO4)C(C)C)ncnc2[nH]1 (single isomer, unassigned) [ASAP-0013827]	< 4.70

Same assay, conditions: HeLa-ACE2 SARS-CoV-2 antiviral effect without P-gp inhibitor; read-out: ec90

Compound	EC90 [µM]
Cc1nn(C)cc1-c1cc2c(N[C@H](c3ccc4c(c3)S(=O)(=O)CCC4)C(C)C)ncnc2[nH]1 (single isomer, unassigned) [ASAP-0011448]	> 20
CCNC(=O)c1cc2c(N[C@H](c3ccc4c(c3)OCCO4)C(C)C)ncnc2[nH]1 (single isomer, unassigned) [ASAP-0013827]	> 20

Tested on: HeLa-ACE2 cells
Assay: not given
Settings: HeLa-ACE2 cytotoxicity; highest measured response of the dose series

Compound	perc_max_measured [%]
CCNC(=O)c1cc2c(N[C@H](c3ccc4c(c3)OCCO4)C(C)C)ncnc2[nH]1 (single isomer, unassigned) [ASAP-0013827]	106.128

Same assay, conditions: HeLa-ACE2 cytotoxicity; lowest measured response of the dose series

Compound	perc_min_measured [%]
CCNC(=O)c1cc2c(N[C@H](c3ccc4c(c3)OCCO4)C(C)C)ncnc2[nH]1 (single isomer, unassigned) [ASAP-0013827]	83.696

Same assay, conditions: protocol HeLa-ACE2 cytotoxicity

Compound	CC50 [µM]	cc10 [µM]
Cc1nn(C)cc1-c1cc2c(N[C@H](c3ccc4c(c3)S(=O)(=O)CCC4)C(C)C)ncnc2[nH]1 (single isomer, unassigned) [ASAP-0011448]	> 20	> 20.0

Same assay, conditions: protocol HeLa-ACE2 cytotoxicity; highest measured response of the dose series

Compound	perc_max_measured [%]
Cc1nn(C)cc1-c1cc2c(N[C@H](c3ccc4c(c3)S(=O)(=O)CCC4)C(C)C)ncnc2[nH]1 (single isomer, unassigned) [ASAP-0011448]	94.816

Same assay, conditions: protocol HeLa-ACE2 cytotoxicity; lowest measured response of the dose series

Compound	perc_min_measured [%]
Cc1nn(C)cc1-c1cc2c(N[C@H](c3ccc4c(c3)S(=O)(=O)CCC4)C(C)C)ncnc2[nH]1 (single isomer, unassigned) [ASAP-0011448]	77.647

Tested on: not listed separately
Assay: Hepatic microsomal stability, HLM
Type: in vitro ADME, human
Settings: In vitro human liver microsomal stability

Compound	clint [µL/min/mg]	perc_remaining [%]	t_half [min]
Cc1nn(C)cc1-c1cc2c(N[C@H](c3ccc4c(c3)S(=O)(=O)CCC4)C(C)C)ncnc2[nH]1 (single isomer, unassigned) [ASAP-0011448]	251.0	2.0	6.6
CCNC(=O)c1cc2c(N[C@H](c3ccc4c(c3)OCCO4)C(C)C)ncnc2[nH]1 (single isomer, unassigned) [ASAP-0013827]	1329.0	1.0	1.3
CNC(=O)c1c[nH]c2ncnc(N[C@@H](c3ccc4c(c3)S(=O)(=O)CCC4)C(C)C)c12 [ASAP-0011156]	108.0	17.0	15.4
CC(C)[C@H](Nc1ncnc2[nH]c(C(=O)N[C@@H]3CCN(C)C3)cc12)c1ccc2c(c1)S(=O)(=O)CCC2 [ASAP-0011196]	3.0	98.0	626.9
CNC(=O)c1cc2c(N[C@@H](c3ccc4c(c3)NC(=O)CO4)C(C)C)ncnc2[nH]1 [ASAP-0011219]	175.0	6.0	9.6
CC(C)[C@H](Nc1ncnc2[nH]c(-c3cnn(CC(N)=O)c3)cc12)c1ccc2c(n1)OCCO2 [ASAP-0012307]	12.0	85.0	134.5

Same assay, conditions: In vitro human liver microsomal stability; no cofactor

Compound	perc_remaining_no_cofactor [%]
Cc1nn(C)cc1-c1cc2c(N[C@H](c3ccc4c(c3)S(=O)(=O)CCC4)C(C)C)ncnc2[nH]1 (single isomer, unassigned) [ASAP-0011448]	116.0
CCNC(=O)c1cc2c(N[C@H](c3ccc4c(c3)OCCO4)C(C)C)ncnc2[nH]1 (single isomer, unassigned) [ASAP-0013827]	97.0
CNC(=O)c1c[nH]c2ncnc(N[C@@H](c3ccc4c(c3)S(=O)(=O)CCC4)C(C)C)c12 [ASAP-0011156]	94.0
CC(C)[C@H](Nc1ncnc2[nH]c(C(=O)N[C@@H]3CCN(C)C3)cc12)c1ccc2c(c1)S(=O)(=O)CCC2 [ASAP-0011196]	100.0
CNC(=O)c1cc2c(N[C@@H](c3ccc4c(c3)NC(=O)CO4)C(C)C)ncnc2[nH]1 [ASAP-0011219]	96.0
CC(C)[C@H](Nc1ncnc2[nH]c(-c3cnn(CC(N)=O)c3)cc12)c1ccc2c(n1)OCCO2 [ASAP-0012307]	90.0

Tested on: not listed separately
Assay: In vitro kinetic solubility
Settings: In vitro kinetic solubility, ph 7.4

Compound	solubility_mean [µM]
Cc1nn(C)cc1-c1cc2c(N[C@H](c3ccc4c(c3)S(=O)(=O)CCC4)C(C)C)ncnc2[nH]1 (single isomer, unassigned) [ASAP-0011448]	63 (≈ 29.3 µg/mL)
CCNC(=O)c1cc2c(N[C@H](c3ccc4c(c3)OCCO4)C(C)C)ncnc2[nH]1 (single isomer, unassigned) [ASAP-0013827]	13 (≈ 5.14 µg/mL)
CNC(=O)c1c[nH]c2ncnc(N[C@@H](c3ccc4c(c3)S(=O)(=O)CCC4)C(C)C)c12 [ASAP-0011156]	204 (≈ 87.2 µg/mL)
CC(C)[C@H](Nc1ncnc2[nH]c(C(=O)N[C@@H]3CCN(C)C3)cc12)c1ccc2c(c1)S(=O)(=O)CCC2 [ASAP-0011196]	366 (≈ 182 µg/mL)
CNC(=O)c1cc2c(N[C@@H](c3ccc4c(c3)NC(=O)CO4)C(C)C)ncnc2[nH]1 [ASAP-0011219]	380 (≈ 150 µg/mL)
CC(C)[C@H](Nc1ncnc2[nH]c(-c3cnn(CC(N)=O)c3)cc12)c1ccc2c(n1)OCCO2 [ASAP-0012307]	377 (≈ 169 µg/mL)
